Patent publication US20250295628A1 (priority 2022, published 2025)

What was measured:
[1] = Solid stability of compositions 1-11 and compounds 1A-11A: main component content over time under different conditions (Example 37, Table 32); type: physicochemical
Procedure: Compositions 1-11 and compounds 1A-11A were placed at environments of −25° C., 5±3° C., 25±2° C./60±5% RH, 40±2° C./75±5% RH, 60° C. for 0 d, 5 d and 10 d (d refers to day), respectively, and changes of the main component content (the main component content of 0 day was converted to 100%) were measured, the results are shown in Table 32.

[2] = test system: chronic cadmium poisoning model rabbits; assay: Cadmium-removing effect by intravenous drip in chronic cadmium poisoning rabbits (Example 18); type: in vivo, New Zealand rabbits; conditions: for Urine β2-microglobulin values: after four weeks of administration
Excerpt: 205 male New Zealand rabbits, 1.8˜2.2 kg, were randomly divided into a blank control group with 25 rabbits and chronic cadmium poisoning groups with a total of 180 rabbits. The model rabbits were ear margin intravenous injected with a mixed solution containing 1.5 μmol/kg CdCl2 and 30 μmol/kg thioethanol (ME) according to weight, once/d for continuous 5 days, and observed for 35 days. After 35 days, qualified rabbits were selected according to weight, including 18 rabbits in the blank group and 162 rabbits in the poisoning group. The 162 rabbits in the poisoning group were randomly divided into a model group, D3 high-dose group, D3 low-dose group, compound 3B high-dose group, compound 3B low-dose group, composition 3 high-dose group, composition 3 low-dose group, composition 3-powder injection high-dose group, composition 3-powder injection low-dose group, with 18 rabbits in each group. Rabbits in the mode group and the blank group were administered by intravenous drip with the same volume of normal saline, with a rate of 30 drops/min for a dripping time of about 2 h, 1 time/d, 5 d/week. After administration on the last day of week 1, week 2 and week 4, the urine of 0 h˜6 h and the urine of 7 h˜24 h of rabbits were respectively collected; the content of cadmium in blood, urine and kidney, and the cadmium-removing rate from blood and kidney were determined, and the results are shown in Table 6.

[3] = 5 ± 3° C., 0 d (0 day content converted to 100%)
[4] = 25 ± 2° C./60 ± 5% RH, 0 d (0 day content converted to 100%)
[5] = 40 ± 2° C./75 ± 5% RH, 0 d (0 day content converted to 100%)
[6] = 60° C., 0 d (0 day content converted to 100%)
[7] = −25° C., 0 d (0 day content converted to 100%)
[8] = 1 w of treatment, high-dose group (D3 433, compound 3B 83.5, composition 3 and composition 3-preparation 108 mg/kg)
[9] = 1 w of treatment, low-dose group (D3 108, compound 3B 21, composition 3 and composition 3-preparation 27 mg/kg)
[10] = 2 w of treatment, high-dose group (D3 433, compound 3B 83.5, composition 3 and composition 3-preparation 108 mg/kg)
[11] = 2 w of treatment, low-dose group (D3 108, compound 3B 21, composition 3 and composition 3-preparation 27 mg/kg)
[12] = 4 w of treatment, high-dose group (D3 433, compound 3B 83.5, composition 3 and composition 3-preparation 108 mg/kg)
[13] = 4 w of treatment, low-dose group (D3 108, compound 3B 21, composition 3 and composition 3-preparation 27 mg/kg)

SMILES	main component content [1, 3]	main component content ([1]; 5 ± 3° C., 5 d)	main component content ([1]; 5 ± 3° C., 10 d)	main component content [1, 4]	main component content ([1]; 25 ± 2° C./60 ± 5% RH, 5 d)	main component content ([1]; 25 ± 2° C./60 ± 5% RH, 10 d)	main component content [1, 5]	main component content ([1]; 40 ± 2° C./75 ± 5% RH, 5 d)	main component content ([1]; 40 ± 2° C./75 ± 5% RH, 10 d)	main component content [1, 6]	main component content ([1]; 60° C., 5 d)	main component content ([1]; 60° C., 10 d)	main component content [1, 7]	main component content ([1]; −25° C., 5 d)	main component content ([1]; −25° C., 10 d)	other results
O=C([O-])CCC(C(=O)[O-])N(CC(O)C(O)C(O)C(O)CO)C(=S)[S][Na].[Na+].[Na+] (stereo not drawn) [Compound 5A]	100%	99.6%	98.7%	100%	97.8%	95.7%	100%	97.9%	91.8%	100%	80.3%	78.7%	100%	100.7%	101.1%	
O=C([O-])C(Cc1cncs1)N(CC(O)C(O)C(O)C(O)CO)C(=S)[S][Na].[Na+] (stereo not drawn) [Compound 9A]	100%	97.2%	96.0%	100%	98.9%	96.0%	100%	92.6%	91.5%	100%	84.5%	79.3%	100%	100.7%	100.5%	
CC(C)C(C(=O)[O-])N(CC(O)C(O)C(O)C(O)CO)C(=S)[S][Na].[Na+] (stereo not drawn) [Compound 2A]	100%	99.5%	98.1%	100%	91.4%	82.5%	100%	94.1%	90.1%	100%	49.9%	48.8%	100%	100.2%	99.8%	
O=C([O-])C(CCSCO)N(CC(O)C(O)C(O)C(O)CO)C(=S)[S][Na].[Na+] (stereo not drawn) [Compound 4A]	100%	97.6%	95.3%	100%	92.8%	91.7%	100%	83.4%	80.8%	100%	68.0%	64.7%	100%	100.2%	100.5%	
O=C([O-])C(CC1CCCCC1)N(CC(O)C(O)C(O)C(O)CO)C(=S)[S][Na].[Na+] (stereo not drawn) [Compound 6A]	100%	98.8%	99.1%	100%	93.1%	85.3%	100%	91.5%	91.0%	100%	60.4%	57.8%	100%	100.6%	99.9%	
CSCCC(NCC(O)C(O)C(O)C(O)CO)C(=O)[O-].[Na+] (stereo not drawn) [Compound 3B]																Cadmium in blood [2, 8]: 101.54 ± 13.27 µg/L; Cadmium in kidney [2, 8]: 11.94 ± 3.51 µg/L; Cadmium in blood [2, 9]: 102.21 ± 16.38 µg/L; Cadmium in kidney [2, 9]: 12.03 ± 3.84 µg/L; Cadmium in blood [2, 10]: 73.18 ± 15.27 µg/L; Cadmium in kidney [2, 10]: 12.62 ± 5.37 µg/L; Cadmium in blood [2, 11]: 72.02 ± 16.92 µg/L; Cadmium in kidney [2, 11]: 12.57 ± 3.37 µg/L; Cadmium in blood [2, 12]: 27.92 ± 14.72 µg/L; Cadmium in kidney [2, 12]: 14.02 ± 2.96 µg/L; Cadmium in blood [2, 13]: 28.53 ± 12.62 µg/L; Cadmium in kidney [2, 13]: 13.22 ± 4.20 µg/L; cadmium-removing effect (compared with the model group) ([2]; 21 and 83.5 mg/kg, 1-4 weeks): no cadmium-removing effect; Urine β2-microglobulin values ([2]; high-dose group (D3 433, compound 3B 83.5, composition 3 and composition 3-preparation 108 mg/kg)): 209.42 ± 38.21 ng/L; Urine β2-microglobulin values ([2]; low-dose group (D3 108, compound 3B 21, composition 3 and composition 3-preparation 27 mg/kg)): 213.56 ± 31.76 ng/L
COc1ccc(CC(C(=O)[O-])N(CC(O)C(O)C(O)C(O)CO)C(=S)[S][Na])cc1.[Na+] (stereo not drawn) [Compound 7A]	100%	100.0%	99.1%	100%	99.3%	98.0%	100%	98.7%	96.5%	100%	80.2%	80.1%	100%	100.1%	100.6%	
O=C([O-])C(CF)N(CC(O)C(O)C(O)C(O)CO)C(=S)[S][Na].[Na+] (stereo not drawn) [Compound 1A]	100%	99.5%	99.1%	100%	97.3%	92.1%	100%	83.5%	81.5%	100%	59.4%	58.7%	100%	100.2%	100.1%	
O=C([O-])C(CO)N(CC(O)C(O)C(O)C(O)CO)C(=S)[S][K].[K+] (stereo not drawn) [Compound 10A]	100%	99.5%	98.1%	100%	97.0%	96.1%	100%	92.0%	90.3%	100%	82.0%	79.1%	100%	100.5%	101.4%	
O=C([O-])C(Cc1cccs1)N(CC(O)C(O)C(O)C(O)CO)C(=S)[S][Na].[Na+] (stereo not drawn) [Compound 8A]	100%	97.9%	96.2%	100%	95.5%	93.3%	100%	94.7%	89.6%	100%	80.4%	79.7%	100%	101.1%	100.3%	
